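Tested at 5 concentrations; 48 h exposure; 96-well plates; endpoints linearly interpolated, else capped at highest concentration. GI50 = concentration required for 50% inhibition of growth. TGI denotes the concentration required for complete inhibition of growth.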
What was measured:
Assay in all cases: inhibition of tumour cell growth, NCI panel, 48 h
A498 renal = system: A498 renal
BT-549 breast = system: BT-549 breast
HL-60(TB) leukemia = system: HL-60(TB) leukemia
KM12 colon = system: KM12 colon
MCF7 breast = system: MCF7 breast
MDA-MB-231 breast = system: MDA-MB-231 breast
NCI-H522 lung = system: NCI-H522 lung
RXF 393 renal = system: RXF 393 renal
SW-620 colon = system: SW-620 colon
U251 CNS = system: U251 CNS

| Structure (SMILES) | GI50 (A498 renal) | TGI (A498 renal) | GI50 (BT-549 breast) | TGI (BT-549 breast) | GI50 (HL-60(TB) leukemia) | TGI (HL-60(TB) leukemia) | GI50 (KM12 colon) | TGI (KM12 colon) | GI50 (MCF7 breast) | TGI (MCF7 breast) | GI50 (MDA-MB-231 breast) | TGI (MDA-MB-231 breast) | GI50 (NCI-H522 lung) | TGI (NCI-H522 lung) | GI50 (RXF 393 renal) | TGI (RXF 393 renal) | GI50 (SW-620 colon) | TGI (SW-620 colon) | GI50 (U251 CNS) | TGI (U251 CNS) |
| --- | --- | --- | --- | --- | --- | --- | --- | --- | --- | --- | --- | --- | --- | --- | --- | --- | --- | --- | --- | --- |
| Nc1nc(N)c2cc(S(=O)(=O)c3ccccc3)ccc2n1 | 8.33 µM | > 100 µM | 6.59 µM | 92.3 µM | 1.64 µM | 31.5 µM | 4.23 µM | > 100 µM | 2.86 µM | > 100 µM | 8.07 µM | > 100 µM | 4.56 µM | > 100 µM | 72.5 µM | > 100 µM | 0.512 µM | > 100 µM | 1.24 µM | > 100 µM |
| Cc1nc2sc(C(=O)Nc3cccc(Cl)c3C)c(N)c2cc1C(O)c1ccccc1 (centres undefined) | 0.0158 µM | 0.059 µM | 0.124 µM | 3 µM | 0.0289 µM | 0.133 µM | 0.0372 µM | 5.22 µM | 0.0332 µM | 11.3 µM | 0.0834 µM | 6.95 µM | 0.0278 µM | 1.77 µM | – | – | 0.0331 µM | 15.4 µM | 0.039 µM | 13.8 µM |
| CC(=O)OCCC/C(=C/c1cc2ccccc2c2ccccc12)[N+](=O)[O-] | 1.38 µM | 2.72 µM | 1.56 µM | 3.26 µM | 1.43 µM | 4.57 µM | 1.56 µM | 2.89 µM | 0.545 µM | 1.95 µM | 1.78 µM | 4.3 µM | 0.252 µM | 0.981 µM | 1.4 µM | 2.91 µM | 1.49 µM | 2.81 µM | 1.43 µM | 2.74 µM |
| C=CC(=O)N1CCC(CNc2ncnc(N)c2-c2ccc(Oc3ccccc3)cc2)CC1 | 10.7 µM | 31.9 µM | 20.3 µM | 70.1 µM | 19.9 µM | 46.4 µM | 28.7 µM | > 100 µM | 23.4 µM | > 100 µM | 25.5 µM | 89 µM | 10.4 µM | 32.5 µM | 22.4 µM | 85.2 µM | 33.5 µM | > 100 µM | 25.7 µM | > 100 µM |
| COc1ccc2cn3c4ccc(O)cc4[nH]c(=O)c3c2c1 | 0.404 µM | 17 µM | 3.34 µM | 18.1 µM | 0.111 µM | 13 µM | 0.0846 µM | 14.9 µM | 0.236 µM | 14.6 µM | 0.434 µM | 14.8 µM | 0.031 µM | 1.05 µM | 0.0447 µM | 1.04 µM | 0.047 µM | 13.7 µM | 0.153 µM | 12.4 µM |
| COc1ccc(OC)c(-c2nc3sc(C)cn3c2/C=C2\C(=O)N(C)c3ccccc32)c1 | 29.3 µM | 70.6 µM | 26.2 µM | 81.6 µM | 11.5 µM | 31.6 µM | 21.9 µM | 68.5 µM | 12.7 µM | 41.8 µM | 15.3 µM | 66.3 µM | 22 µM | 59.4 µM | – | – | 35.6 µM | > 100 µM | 22.2 µM | 59.5 µM |
| Cn1c(=O)c2[nH]c(CCS)nc2n(C)c1=O | – | > 100 µM | – | > 100 µM | – | > 100 µM | – | > 100 µM | – | > 100 µM | – | > 100 µM | – | > 100 µM | – | > 100 µM | – | > 100 µM | – | > 100 µM |
| CN1CCC(n2cnc(-c3ccc(F)cc3)c2-c2ccnc(Nc3ccccc3)n2)CC1 | 7.77 µM | > 25 µM | 10.4 µM | > 25 µM | 9.65 µM | > 23.2 µM | 8.11 µM | > 25 µM | 1.83 µM | > 25 µM | 13.6 µM | > 25 µM | 5.73 µM | > 15.7 µM | 10.5 µM | > 25 µM | 7.88 µM | > 25 µM | 6.7 µM | > 25 µM |
| CCN1Cc2c(/C=C/c3ccccc3)nc3ccc(OC)cc3c2N(c2cccc(Cl)c2)C1 | 1.5 µM | 3.86 µM | 5.73 µM | 23 µM | 2.08 µM | 5.66 µM | 1.81 µM | 3.49 µM | 1.65 µM | 3.75 µM | 1.75 µM | 3.69 µM | 1.4 µM | 2.88 µM | 2.07 µM | 3.69 µM | 1.67 µM | 3.29 µM | 1.71 µM | 3.3 µM |
| CCCCc1n(Cc2ccc3ccccc3n2)cc[n+]1Cc1ccc2ccccc2c1 | 1.18 µM | 4.45 µM | 0.648 µM | 1.74 µM | 0.251 µM | 0.755 µM | 0.715 µM | 2.11 µM | 0.69 µM | 2.27 µM | 0.635 µM | 2.04 µM | 0.58 µM | 2.18 µM | 1.22 µM | 3.16 µM | 1.31 µM | 4.75 µM | 0.661 µM | 2.06 µM |
| CCSc1nc(N)c(C#N)c(-c2ccc(OC)c(OC)c2)c1C#N | 15.8 µM | 40.7 µM | 39.5 µM | > 50 µM | 21.8 µM | > 50 µM | 15.2 µM | > 50 µM | 10.6 µM | > 50 µM | 11.7 µM | 48.9 µM | 10.2 µM | 35.2 µM | – | – | 25.4 µM | > 50 µM | 17.6 µM | > 50 µM |
| Nc1ccccc1-n1c2c(c3ccccc3c1=O)C(=O)c1ccccc1-2 | – | > 100 µM | – | 12.9 µM | – | 41.6 µM | – | > 100 µM | – | > 100 µM | – | > 100 µM | – | 25.6 µM | – | – | – | > 100 µM | – | 60.5 µM |
| COc1ccc(-n2nc(C(=O)NCC(=O)Nc3nc4cc(OC)ccc4s3)c3ccccc3c2=O)cc1 | 1.37 µM | 10.3 µM | 3.04 µM | 25.9 µM | > 100 µM | > 100 µM | – | – | 1.35 µM | > 32 µM | 1.49 µM | 4.46 µM | 1.69 µM | 7.99 µM | 0.698 µM | 2.07 µM | 0.66 µM | > 100 µM | 0.448 µM | 1.73 µM |
| Nc1n[nH]c2cc(F)c([C@@H]3Nc4c(F)cc5[nH]ncc5c4[C@H]4C5CCC(C5)[C@@H]34)cc12 (some centres undefined) | 0.063 µM | 0.212 µM | 0.103 µM | 1.37 µM | 0.1 µM | 0.317 µM | 0.129 µM | 0.853 µM | 0.118 µM | 6.32 µM | 0.135 µM | 5.05 µM | 0.0932 µM | 2.22 µM | – | – | 0.141 µM | 6.72 µM | 0.127 µM | 5.7 µM |

From PubChem BioAssay (NCI)
